According to ChEMBL document CHEMBL1201862, “PubChem BioAssay data set” (2004):
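Grown in 96-well plates, cells were treated for 48 hours with each compound at five concentrations. Insufficient inhibition: endpoint recorded as highest concentration tested. The concentration for 50% growth inhibition is given as GI50.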 Activity calls are given as the source filed them. Rule as the data show it: active = GI50 up to about 1.1 µM and inactive = higher.

Columns and labels:
Test in all cases: DTP human tumour cell line panel, 48 h
A549 = system: A549
K562 = system: K562
HCT-15 = system: HCT-15
PC-3 = system: PC-3
NCI-H23 = system: NCI-H23
HOP-62 = system: HOP-62
OVCAR-4 = system: OVCAR-4
CAKI-1 = system: CAKI-1
COLO 205 = system: COLO 205
SK-MEL-28 = system: SK-MEL-28
SF-295 = system: SF-295
MCF7 = system: MCF7
MDA-MB-231 = system: MDA-MB-231
NCI/ADR-RES = system: NCI/ADR-RES
SF-268 = system: SF-268
SNB-75 = system: SNB-75
SK-OV-3 = system: SK-OV-3
KM12 = system: KM12
ACHN = system: ACHN
SW-620 = system: SW-620
TK-10 = system: TK-10
RXF 393 = system: RXF 393
M14 = system: M14
LOX IMVI = system: LOX IMVI
SR = system: SR
DU-145 = system: DU-145
IGROV-1 = system: IGROV-1
T47D = system: T47D
U-251 = system: U-251
EKVX = system: EKVX
MDA-N = system: MDA-N
HCC 2998 = system: HCC 2998
Hs-578T = system: Hs-578T
NCI-H226 = system: NCI-H226
MOLT-4 = system: MOLT-4
NCI-H460 = system: NCI-H460
HCT-116 = system: HCT-116
A498 = system: A498
SF-539 = system: SF-539
RPMI-8226 = system: RPMI-8226
UO-31 = system: UO-31
HL-60 = system: HL-60
CCRF-CEM = system: CCRF-CEM
Malme-3M = system: Malme-3M
HT-29 = system: HT-29
UACC-62 = system: UACC-62
MDA-MB-435 = system: MDA-MB-435
OVCAR-3 = system: OVCAR-3
BT-549 = system: BT-549
OVCAR-5 = system: OVCAR-5
786-0 = system: 786-0
UACC-257 = system: UACC-257
SNB-19 = system: SNB-19
SN12C = system: SN12C
SK-MEL-2 = system: SK-MEL-2
NCI-H522 = system: NCI-H522
HOP-92 = system: HOP-92
OVCAR-8 = system: OVCAR-8

## O=C1NC(NNc2ccccc2)=N/C1=C\c1ccccc1O
A549
  GI50: 72.6 µM (inactive)
K562
  GI50: 50.2 µM (inactive)
HCT-15
  GI50: 44.2 µM
PC-3
  GI50: 33.6 µM (inactive)
NCI-H23
  GI50: 39.1 µM (inactive)
HOP-62
  GI50: 48.4 µM (inactive)
OVCAR-4
  GI50: 50.9 µM (inactive)
CAKI-1
  GI50: 63.1 µM (inactive)
COLO 205
  GI50: > 100 µM (inactive)
SK-MEL-28
  GI50: > 100 µM (inactive)
SF-295
  GI50: 50.2 µM (inactive)
MCF7
  GI50: 40.4 µM (inactive)
MDA-MB-231
  GI50: 68.2 µM (inactive)
NCI/ADR-RES
  GI50: 29.6 µM (inactive)
SF-268
  GI50: > 100 µM (inactive)
SNB-75
  GI50: 43.4 µM (inactive)
SK-OV-3
  GI50: > 100 µM (inactive)
KM12
  GI50: 33.2 µM (inactive)
ACHN
  GI50: 49.1 µM (inactive)
SW-620
  GI50: 58.1 µM (inactive)
TK-10
  GI50: 67.3 µM (inactive)
RXF 393
  GI50: 40 µM (inactive)
M14
  GI50: 97.1 µM (inactive)
LOX IMVI
  GI50: > 100 µM (inactive)
SR
  GI50: > 100 µM (inactive)
DU-145
  GI50: 67 µM (inactive)
IGROV-1
  GI50: 89.1 µM (inactive)
T47D
  GI50: 34.1 µM (inactive)
U-251
  GI50: 70.5 µM (inactive)
EKVX
  GI50: 66.8 µM (inactive)
MDA-N
  GI50: 71.3 µM (inactive)
HCC 2998
  GI50: 80.9 µM (inactive)
Hs-578T
  GI50: > 100 µM (inactive)
NCI-H226
  GI50: 86.1 µM (inactive)
MOLT-4
  GI50: 51.6 µM (inactive)
NCI-H460
  GI50: 45.6 µM (inactive)
HCT-116
  GI50: 48.2 µM (inactive)
A498
  GI50: 45.9 µM (inactive)
SF-539
  GI50: 77.6 µM (inactive)
RPMI-8226
  GI50: 81.5 µM (inactive)
UO-31
  GI50: > 100 µM (inactive)
HL-60
  GI50: 28.8 µM (inactive)
CCRF-CEM
  GI50: 18.3 nM (active)
Malme-3M
  GI50: > 100 µM (inactive)
HT-29
  GI50: 61 µM (inactive)
UACC-62
  GI50: 53.3 µM (inactive)
MDA-MB-435
  GI50: 71.1 µM (inactive)
OVCAR-3
  GI50: 96.2 µM (inactive)
BT-549
  GI50: 21 µM (inactive)
OVCAR-5
  GI50: > 100 µM (inactive)
786-0
  GI50: 62.5 µM (inactive)
UACC-257
  GI50: 40.9 µM (inactive)
SNB-19
  GI50: > 100 µM (inactive)
SN12C
  GI50: 73.6 µM (inactive)
SK-MEL-2
  GI50: 75.2 µM (inactive)
NCI-H522
  GI50: 80.4 µM (inactive)
HOP-92
  GI50: 55 µM (inactive)
OVCAR-8
  GI50: > 100 µM (inactive)
